The results in this text go back to paper PMC4849654, “A High-Throughput Cell-Based Screen Identified a 2-[(E)-2-Phenylvinyl]-8-Quinolinol Core Structure That Activates p53” (PLoS ONE, 2016).

Where a SMILES comes first, the peptide text is derived from it. The star is where a group is joined. Cbz = O=C(OCc1ccccc1)*

Assay [1] has as its system proteasome chymotrypsin-like activity. In words: Proteasome-Glo chymotrypsin-like activity. Particulars: C33a cells, 2 hrs, 10 μM or 30 μM. It counts as cell-based.
In assay [2] the test system is proteasome trypsin-like activity. In words: Proteasome-Glo trypsin-like activity. It counts as cell-based. The settings on record: C33a cells, 2 hrs, 10 μM or 30 μM.
Assay [3] addresses T1, p53 (Homo sapiens, UniProt P04637, R273C).
T1 construct: endogenous in cells; host or cells: C33a
Put plainly: p53 nuclear localization by immunofluorescence. Particulars: C33a cells, 30 μM, 8 hrs. Type of assay: cell-based. Here is the method:
C33a cells were plated into chamber slides and treated with 30 μM of compounds 3 or, 4 for 4, or 8 hours. As a control, 30 μM cisplatin was used. The cells were fixed with 2.5% formaldehyde for 30 minutes, followed by permeabilization with 0.01% Triton X100 for 30 minutes. Cells were blocked with 5% goat serum for 30 minutes and stained overnight with anti-p53 (Santa Cruz, antibody FL-303) or anti-phospho-H2A.X (cell signaling) in 1% FCS in PBS at 4°. The following day, the cells were washed with PBS and incubated for 45 minutes with anti-rabbit-FITC and DAPI in 1% FCS in PBS. The cells were washed and mounted with ProLong Gold.

Assay [4] addresses T1, p53. Put plainly: Nuclear/cytoplasmic fractionation and Western analysis of p53. Particulars: C33a cells, 6 hrs, Western. Type of assay: cell-based. The procedure: For nuclear/cytoplasmic fractionation, 1 × 10^7 C33a cells were treated with 30 μM compound for 6 hrs. The cells were washed with PBS and lysed in 1000 μL of cytoplasmic extraction buffer (10 mM KCl, 10 mM HEPES, pH 7.9, 0.1 mM EDTA, 1 mM dithiothreitol) and incubated on ice for 20 min. 50 μL of 10% NP-40 was added to each lysate, vortexed and then centrifuged at 12,000 × g for 10 min. The cytosolic fraction was collected and the pellet containing the nuclei suspended in 50 μL of nuclear extraction buffer (0.4 M NaCl, 20 mM HEPES, pH 7.9, 1 mM EDTA). The nuclear fraction was incubated for 30 min on ice. The samples were spun at 14,000 × g for 10 min and the supernatants were collected. To concentrate the cytoplasmic fraction, 500 μL methanol, and 200 μL chloroform were added and the samples were vortexed, centrifuged for 10 min at 14,000 × g, and the upper and lower layer were discarded. The solid interphase was collected and suspended in 50 μL of lysis buffer. Equal cell equivalents were loaded on a gel and electrophoresed. For whole cell lysates, C33a cells were lysed with a modified RIPA buffer and subjected to SDS-PAGE electrophoresis. The gels were transferred to nitrocellulose and blots probed with antibodies for p53 (Santa Cruz, antibody FL-303), lamin A/C, and calnexin (Santa Cruz Biotechnology).

The next assay deals with PUMA. In words: PUMA transcription by qRT-PCR. Type of assay: cell-based. Particulars: 30 μM, 8h. The source says: (§1) RNA from C33a and HeLa was isolated by Trizol and reverse transcribed using the first strand synthesis kit from NEB. Primers for p53, GAPDH and PUMA were used for quantitative real-time PCR (qRT-PCR). Primer sequences include: PUMA (forward primer: CTCAACGCACAGTACGAG and reverse primer: […]), FAS (forward primer: TCTGCCATAAGCCCTGT and reverse primer: GTCTGTGTACTCCTTCCCT), p21 (forward primer: […] and reverse primer: […]), and BAX (forward primer: […] and reverse primer: […]). ΔΔCt values were determined for PUMA using GAPDH to normalize data. Bio-rad SYBR green was used for the amplification and detection of the PCR products on an iCycler (Bio-rad).
(In qPCR the cycle at which signal appears reflects the starting amount.)

In a further assay the test system is p21, BAX and FAS. Put plainly: p53 target gene expression (p21, BAX, FAS) by qRT-PCR. It counts as cell-based. The settings on record: HeLa cells, 8h.
Source text: as §1

The next assay has as its system HeLa cells. In words: Cell viability (Cell Titer Glo), HeLa. Type of assay: cell-based. The settings on record: for IC50: HeLa cells, 48 hrs, Cell Titer Glo. The procedure:
(§2) For the viability assays, 20,000 C33a, HeLa, or siHA cells were plated in white 96 well flat bottom plates. The cells were treated with compounds at concentrations from 0.5 to 30 μM for 48 hrs. After incubation, Cell Titer Glo (Promega) was added to the cells and luminescence read in a Tecan II plate reader. For annexin V and PI staining, 500,000 C33a cells were treated with inhibitor for 24 hrs. The cells were stained with Annexin V-FITC and PI according to eBioscience manufacturer’s instructions and analyzed by flow cytometry.
(In general: ATP-based viability assays read luminescence as a measure of living cells.)

The subject of assay [5] is C33a cells. Put plainly: Cell viability (Cell Titer Glo), C33a. It counts as cell-based. Particulars: for IC50: C33a cells, 48 hrs, Cell Titer Glo. Here is the method:
as §2

The subject of a further assay is siHA cells. In words: Cell viability (Cell Titer Glo), siHA. It counts as cell-based. The settings on record: 48h. Here is the method: as §2
The test system of assay [6] is C33a cells. In words: Cell viability after p53 siRNA knockdown. It counts as cell-based. The settings on record: p53 siRNA vs scrambled, 10 μM, 48 hrs. The procedure: C33a cells were transfected with 100 pmol siRNA for p53 (Dharmacon, L-003329-00-0005) or AllStar control (Qiagen) using lipofectamine2000 according to manufacturer’s instructions. The cells were incubated for 24 hrs and then split and incubated with 10 μM compounds. Cell viability was measured after 48 hours by Cell Titer Glo. Efficiency of knockdown was determined by quantitative RT-PCR using SYBR green.

The subject of assay [7] is p53-Luc. Put plainly: In vitro E6 degradation assay (recombinant E6 with p53-Luc lysates). It counts as biochemical. Particulars: 50 ng recombinant E6, 10 μM compound, C33a lysates, 6 hours. Here is the method:
For the in vitro assay, E6 was cloned into the pMAL vector in frame with the maltose binding protein. The E6 was expressed in bacteria and purified on amylose column. C33a cells were transfected with p53-Luc and incubated overnight. 50 ng recombinant E6 was incubated with 10 μM compound and C33a lysates for 6 hours at 30 degrees. We measured luciferase activity after 30 minutes. For the trypsin and chymotrypsin assay, C33a cells were incubated for 2 hours with the indicated compounds at 10 μM and assessed for chymotrypsin and trypsin activity using Proteasome-Glo assay (Promega). For the in vivo degradation assay, C33a cells expressing Ad-TE6 and Ad-p53 or expressing Ad-TE7 and Ad-Rb-Ren were treated for 8 hours with compounds. After incubation, cells were lysed and luciferase activity measured and p53 levels measured by Western blot.

In assay [8] the test system is p53-Luc. In words: TE6 p53-Luc targeted degradation reporter in C33a cells. Type of assay: cell-based. Particulars: C33a cells expressing p53-Luc and TE6. The procedure: Adenoviruses were generated using the RAPAd CMV adenoviral expression system (Cellbiolabs, San Diego, CA). High-throughput screening was performed at the University of Illinois High-Throughput Screening Facility. For each group, 1x 10^7 C33a cells were plated in 150 mm^2 dishes in 20 ml cDMEM. For p53xTE6 group, 1 x 10^8 GFU/mL of p53-Luc adenovirus and 1 x 10^9 GFU/mL TE6 adenovirus were plated. For RbxTE7 group, 1 x 10^8 GFU/mL of p60RbRen adenovirus and 1 x 10^9 GFU/mL of βTrCP-E7 adenovirus were added. For control group, Ad-Red was substituted for TE6 or TE7 adenovirus in the p53 control and Rb control, respectively. […] Positive hits were scored as ≥ 2-fold above vehicle treated p53-Luc wells.
For the in vitro assay, E6 was cloned into the pMAL vector in frame with the maltose binding protein. […] We measured luciferase activity after 30 minutes. For the trypsin and chymotrypsin assay, C33a cells were incubated for 2 hours with the indicated compounds at 10 μM and assessed for chymotrypsin and trypsin activity using Proteasome-Glo assay (Promega). […] After incubation, cells were lysed and luciferase activity measured and p53 levels measured by Western blot.

Turning to `CC(C)C[C@@H](C=O)NC(=O)[C@H](CC(C)C)NC(=O)[C@H](CC(C)C)NC(=O)OCc1ccccc1` [MG132, reference compound] (Cbz-Leu-Leu-Leu-aldehyde), in [1], the chymotrypsin-like proteasome activity result is on record as “significantly inhibited”. In addition, in [2], the trypsin-like proteasome activity entry was “significantly inhibited”.

Turning to `Cc1cccc(/C=C/c2ccc3cccc(O)c3n2)c1O` [compound 3], the “p53 nuclear accumulation, % of cell nuclei” value on p53 [3] was 51.1±2.18 % of cell nuclei. Further, the “nuclear accumulation of p53 in nuclear fraction compared to vehicle” value on p53 [4] was “higher levels of nuclear accumulation of p53”. Besides, the PUMA transcription upregulation was found to be 3.92±0.27 fold in the assay on PUMA (C33a cells) and 4.35±0.22 fold in the assay with PUMA (HeLa cells). The “expression of p21, BAX and FAS” value in the assay on p21, BAX and FAS is listed as “induced expression”. The IC50 with HeLa cells was 6 µM; in the assay on C33a cells [5], 3.8 µM. Besides, the “cell viability at 30 μM” value in the assay on HeLa cells (HeLa, 30 μM, 48h) was “decreased viability”; with C33a cells [5] (C33a, 30 μM, 48h), “decreased viability”; in the assay on siHA cells, “decreased viability”. In the assay with C33a cells [6], the “effect of p53 gene knockdown on C33a sensitivity to compound” value is on record as “significantly reversed”. Also, in assay [1], the chymotrypsin-like proteasome activity result is “did not significantly reduce”. The trypsin-like proteasome activity entry in [2] is reported as “did not significantly reduce”. The “restoration of p53 levels in vitro” value in the assay with p53-Luc [7] is on record as “restored p53 levels in vitro to similar levels as the proteasome inhibitor MG132”.

With `CC(C)C[C@H](NC(=O)[C@H](Cc1ccccc1)NC(=O)c1cnccn1)B(O)O` [bortezomib], the “restoration of p53-Luc luciferase activity” value with p53-Luc [8] is recorded as “restored p53-Luc luciferase activity”.

Turning to `OCc1ccc(-c2ccc(-c3ccc(CO)s3)o2)s1` [RITA], the “restoration of p53-Luc luciferase activity” value in the assay with p53-Luc [8] is “did not restore p53-Luc activity”.

Regarding `COc1cc(/C=C/c2ccc3cccc(O)c3n2)cc(Br)c1OC` [compound 37], the “expression of p21, BAX and FAS” value with p21, BAX and FAS is on record as “induced expression”.

On to `N.N.[Cl][Pt][Cl]` [cisplatin, reference compound], for which the IC50 in the assay on HeLa cells is 4.6 µM; in the assay on C33a cells [5], 24 µM.

One may read the IC50 as the midpoint of a concentration-inhibition curve.
